According to patent publication US11992473B2, “Compositions and methods for diagnosis and treatment of conditions related to the quality of aging and longevity” (Epitracker, Inc., priority 2018, dated 2024):

Tests used:
Dermal fibroblasts = experiment: BioMAP Diversity PLUS HDF3CGF system (wound healing and matrix/tissue remodeling); format: cell-based, human; settings: for decorin: fibrosis and chronic inflammation (FIG. 7)
Method: (§1) This study examined activities of small molecules discovered in dolphin serum that had protective profiles against diseases of aging which can impact quality of life and longevity. These molecules were tested across 12 human primary cell-based systems as part of DiscoverX's BioMAP Diversity Plus program. These systems are designed to model complex human tissue and disease biology of the vasculature, skin, lung, and inflammatory tissues. Quantitative measurements of biomarker activities across this broad panel, along with comparative analysis of biological activities of known bioactive agents were used to predict and compare the efficacy and function of the four compounds. Compounds were tested at four concentrations (740 nm and 2.2, 6.7 and 20 μM).
(§2) BioMAP panels consist of human primary cell-based systems designed to model different aspects of the human body in an in vitro format. The 12 systems in the Diversity PLUS panel allow test agent characterization in an unbiased way across a broad set of systems modeling various human disease states. BioMAP systems are constructed with one or more primary cell types from healthy human donors, with stimuli (such as cytokines or growth factors) added to capture relevant signaling networks that naturally occur in human tissue or pathological conditions. Vascular biology is modeled in both a Th1 (3C system) and a Th2 (4H system) inflammatory environment, as well as in a Th1 inflammatory state specific to arterial smooth muscle cells (CASM3C system). Additional systems recapitulate aspects of the systemic immune response including monocyte-driven Th1 inflammation (LPS system) or T cell stimulation (SAg system), chronic Th1 inflammation driven by macrophage activation (lMphg system) and the T cell-dependent activation of B cells that occurs in germinal centers (BT system). The BE3C system (Th1) and the BF4T system (Th2) represent airway inflammation of the lung, while the MyoF system models myofibroblast-lung tissue remodeling. Lastly, skin biology is addressed in the KF3CT system modeling Th1 cutaneous inflammation and the HDF3CGF system modeling wound healing.
(§3) Each test agent generates a signature BioMAP profile that is created from the changes in protein biomarker readouts within individual system environments. Biomarker readouts (7-17 per system) are selected for therapeutic and biological relevance, are predictive for disease outcomes or specific drug effects and are validated using agents with known mechanism of action (MoA). Each readout is measured quantitatively by immune-based methods that detect protein (e.g., ELISA) or functional assays that measure proliferation and viability. BioMAP readouts are diverse and include cell surface receptors, cytokines, chemokines, matrix molecules and enzymes.
(§4) The Diversity PLUS panel allows test agent characterization in an unbiased way across a broad set of systems modeling various human disease states. These systems are designed to model complex human tissue and disease biology of the vasculature, skin, lung, and inflammatory tissues.
(§5) BioMAP systems are constructed with one or more primary cell types from healthy human donors, with stimuli (such as cytokines or growth factors) added to capture relevant signaling networks that naturally occur in human tissue or pathological conditions. Vascular biology is modeled in both a Th1 (3C system) and a Th2 (4H system) inflammatory environment, as well as in a Th1 inflammatory state specific to arterial smooth muscle cells (CASM3C system). Additional systems recapitulate aspects of the systemic immune response including monocyte-driven Th1 inflammation (LPS system) or T cell stimulation (SAg system), chronic Th1 inflammation driven by macrophage activation (lMphg system) and the T cell-dependent activation of B cells that occurs in germinal centers (BT system).

[1] = tested on: Venular endothelial cells, peripheral blood mononuclear cells; experiment: BioMAP Diversity PLUS SAg system (T cell stimulation, Th1 type chronic inflammation); format: cell-based, human; settings: for Significant log10 reduction compared to nontreated controls: T cell proliferation: SAg system; for T cell proliferation: human cell system mimicking T-cell driven chronic inflammation and autoimmune diseases, concentrations ranging from 740 nm to 6.7 μM (FIG. 2)
Method: as §1, §2
as §3, with “enzymes. In total, the Diversity PLUS panel contains 148 biomarker readouts that capture biological changes that occur within the physiological context of the particular BioMAP system. Specific BioMAP activities have been correlated to in vivo biology, and multiparameter BioMAP profiles have been used to distinguish compounds based on MoA and target selectivity across diverse physiological systems.” for “enzymes.”
(§6) The Diversity PLUS panel allows test agent characterization in an unbiased way across a broad set of systems modeling various human disease states. These systems are designed to model complex human tissue and disease biology of the vasculature, skin, lung, and inflammatory tissues. Quantitative measurements of 148 biomarker activities across this broad panel, along with comparative analysis of biological activities from known bioactive agents, were used to predict and compare the efficacy and function of each selected compound at four concentrations (740 nm and 2.2, 6.7 and 20 μM). […]

[2] = white powder; room temperature; cited from earlier work
[3] = tested on: Peripheral blood mononuclear cells, B cells; experiment: BioMAP Diversity PLUS BT system (T cell dependent B cell activation); format: cell-based, human; settings: BT system
Method: as §1, §2, §3, §4, §5

[4] = tested on: Bronchial epithelial cells, dermal fibroblasts; experiment: BioMAP Diversity PLUS BF4T system (Th2 type lung inflammation); format: cell-based, human
Method: as §1, §2
as §3, with “enzymes. In total, the Diversity PLUS panel contains 148 biomarker readouts that capture biological changes that occur within the physiological context of the particular BioMAP system. Specific BioMAP activities have been correlated to in vivo biology, and multiparameter BioMAP profiles have been used to distinguish compounds based on MoA and target selectivity across diverse physiological systems.” for “enzymes.”
as §6

[5] = tested on: Coronary artery smooth muscle cells; experiment: BioMAP Diversity PLUS CASM3C system (Th1 type vascular inflammation); format: cell-based, human
Method: as §1, §2, §3, §4, §5

[6] = tested on: Macrophages, venular endothelial cells; experiment: BioMAP Diversity PLUS lMphg system (Th1 type chronic inflammation, macrophage activation); format: cell-based, human; settings: /Mphg system
Method: as §1, §2
as §3, with “enzymes. In total, the Diversity PLUS panel contains 148 biomarker readouts that capture biological changes that occur within the physiological context of the particular BioMAP system. Specific BioMAP activities have been correlated to in vivo biology, and multiparameter BioMAP profiles have been used to distinguish compounds based on MoA and target selectivity across diverse physiological systems.” for “enzymes.”
as §6

[7] = tested on: Venular endothelial cells, peripheral blood mononuclear cells; experiment: BioMAP Diversity PLUS LPS system (Th1 type chronic inflammation, monocyte activation); format: cell-based, human; settings: for Significant log10 reduction compared to nontreated controls: Secreted prostaglandin E2 (PGE2): LPS system; for secretion of prostaglandin E2 (PGE2): human cell system mimicking T-cell and monocyte driven chronic inflammation and cardiovascular diseases (FIG. 4)
Method: as §1, §2, §3, §4, §5

Lung fibroblasts = experiment: BioMAP Diversity PLUS MyoF system (myofibroblast differentiation and tissue remodeling); format: cell-based, human
Method: as §1, §2
as §3, with “enzymes. In total, the Diversity PLUS panel contains 148 biomarker readouts that capture biological changes that occur within the physiological context of the particular BioMAP system. Specific BioMAP activities have been correlated to in vivo biology, and multiparameter BioMAP profiles have been used to distinguish compounds based on MoA and target selectivity across diverse physiological systems.” for “enzymes.”
as §6

[8] = human cell system mimicking wound healing, remodeling

SMILES: N[C@@H](CC(O)C(=O)O)C(=O)O (stereo partly shown) [4-hydroxyglutamate]
- decorin (Dermal fibroblasts; [8]): inhibitory activity
- Significant log10 reduction compared to nontreated controls: T cell proliferation ([1]; 0.7 μM): −0.08 log10
- Significant log10 reduction compared to nontreated controls: T cell proliferation ([1]; 2.2 μM): −0.09 log10
- Significant log10 reduction compared to nontreated controls: T cell proliferation ([1]; 6.7 μM): −0.18 log10
- T cell proliferation [1]: decreased
- stability of the pure or purified metabolite [2]: stable at room temperature
- Significant log10 reduction compared to nontreated controls: Secreted interleukin 17F (IL-17F) ([3]; 0.7 μM): −0.16 log10

SMILES: CCCCCCC=CCCCCCCCCC(=O)O [10-heptadecanoate]
- Significant log10 reduction compared to nontreated controls: Eotaxin 3 (CCL26) ([4]; 2.2 μM): −0.10 log10
- Significant log10 reduction compared to nontreated controls: Eotaxin 3 (CCL26) ([4]; 6.7 μM): −0.13 log10
- Significant log10 reduction compared to nontreated controls: Eotaxin 3 (CCL26) ([4]; 20.0 μM): −0.31 log10
- Significant log10 reduction compared to nontreated controls: Macrophage colony-stimulating factor (M-CSF) (Dermal fibroblasts; HDF3CGF system, 6.7 μM): −0.1 log10
- Significant log10 reduction compared to nontreated controls: Vascular cell adhesion molecule 1 (VCAM-1) (Dermal fibroblasts; HDF3CGF system, 6.7 μM): −0.17 log10
- Significant log10 reduction compared to nontreated controls: Serum amyloid A ([5]; CASM3C system, 2.2 μM): −0.13 log10

SMILES: NC(=O)CC[C@H](NC(=O)CC[C@H](N)C(=O)O)C(=O)O [Gamma-glutamylglutamine]
- Significant log10 reduction compared to nontreated controls: Monocyte chemoattractant protein 1 (MCP-1) ([6]; 0.7 μM): −0.18 log10
- Significant log10 reduction compared to nontreated controls: Monocyte chemoattractant protein 1 (MCP-1) ([6]; 2.2 μM): −0.10 log10
- Significant log10 reduction compared to nontreated controls: Interleukin 1 alpha (IL-1α) ([6]; 20.0 μM): −0.16 log10
- Significant log10 reduction compared to nontreated controls: Collagen III (Dermal fibroblasts; HDF3CGF system, 20.0 μM): −0.10 log10
- Significant log10 reduction compared to nontreated controls: Vascular cell adhesion molecule 1 (VCAM-1) ([5]; CASM3C system (as aligned in the table), 20.0 μM): −0.15 log10
- Significant log10 reduction compared to nontreated controls: Serum amyloid A ([5]; CASM3C system, 6.7 μM): −0.11 log10
- Significant log10 reduction compared to nontreated controls: Secreted interleukin 6 (IL-6) ([3]; 20.0 μM): −0.13 log10

SMILES: CS(=O)(=O)CC[C@H](N)C(=O)O [Methionine sulfone]
- Significant log10 reduction compared to nontreated controls: Secreted prostaglandin E2 (PGE2) ([7]; 0.7 μM): −0.12 log10
- Significant log10 reduction compared to nontreated controls: Secreted prostaglandin E2 (PGE2) ([7]; 2.2 μM): −0.08 log10
- secretion of prostaglandin E2 (PGE2) [7]: lowered
- Significant log10 reduction compared to nontreated controls: Monocyte chemoattractant protein 1 (MCP-1) (Dermal fibroblasts; HDF3CGF system, 6.7 μM): −0.24 log10
- decorin (Dermal fibroblasts; [8]): inhibitory activity
- T cell proliferation [1]: decreased
- Significant log10 reduction compared to nontreated controls: Decorin (Lung fibroblasts; 6.7 μM): −0.07 log10
- Significant log10 reduction compared to nontreated controls: Decorin (Lung fibroblasts; 20.0 μM): −0.11 log10
- Significant log10 reduction compared to nontreated controls: Vascular cell adhesion molecule 1 (VCAM-1) ([5]; CASM3C system, 0.7 μM): −0.10 log10
- Significant log10 reduction compared to nontreated controls: Vascular cell adhesion molecule 1 (VCAM-1) ([5]; CASM3C system, 2.2 μM): −0.09 log10

SMILES: O=C(O)c1cc(O)c2cccc(O)c2n1 [Xanthurenate]
- Significant log10 reduction compared to nontreated controls: Secreted prostaglandin E2 (PGE2) ([7]; 6.7 μM): −0.16 log10
- Significant log10 reduction compared to nontreated controls: Secreted prostaglandin E2 (PGE2) ([7]; 20.0 μM): −0.09 log10
- secretion of prostaglandin E2 (PGE2) [7]: lowered
- interleukin 8 (IL-8) (Dermal fibroblasts; human cell system mimicking wound healing, remodeling, fibrosis and chronic inflammation (FIG. 8)): inhibitory activity
- IL-6 ([5]; human cell system mimicking cardiovascular inflammation (FIG. 6)): lowered
- Significant log10 reduction compared to nontreated controls: Secreted interleukin 6 (IL-6) ([3]; 20.0 μM): −0.13 log10
- Significant log10 reduction compared to nontreated controls: Secreted tumor necrosis factor alpha (TNFα) ([3]; 20.0 μM): −0.19 log10
